Laboratory results reported in patent publication US20060009431A1, “Nitrosated and nitrosylated compounds, compositions and methods use” (NitroMed, Inc., priority 2003, published 2006).
Like-named read-outs stand apart in the source and are kept apart here.

How the values were obtained:
[1] = system: human coronary artery smooth muscle cells (CASMC); test: Vascular smooth muscle cell (SMC) antiproliferation assay; assay type: cell-based; settings: viable cell count (Trypan Blue exclusion) ~68 hours after compound addition
Experimental: Suppression of Proliferation of Human Coronary Artery Smooth Muscle Cells (CASMC)
Vascular Smooth Muscle Cell (SMC) Antiproliferation Assay
The cells used in this assay were human coronary artery smooth muscle cells (CASMC) supplied by Clonetics Corp. (San Diego, Calif.). They were maintained in SmGM-2 growth medium (Clonetics Corp.), which consisted of modified MCDB 131 medium supplemented with 5% (v/v) fetal bovine serum (FBS), 0.5 ng/mL human recombinant epidermal growth factor (EGF), 2 ng/mL human recombinant fibroblast growth factor (FGF), 5 μg/mL bovine insulin, 50 μg/mL gentamicin sulfate, and 50 ng/mL amphotericin B under humidified 95% air-5% CO2 at 37° C. Cells were used for experiments up to about 17 cumulative population doublings (i.e., passage 9); at this age they still stained positive for smooth muscle actin, a protein marker for smooth muscle cells.
For the SMC antiproliferation assay, the cells were seeded at 3×10^4 viable cells in 2 mL of SmGM-2 medium per well of a Corning 24 tissue culture well plate (Corning, N.Y.). Stock solutions of the test compounds were prepared just prior to addition to the cells by dissolving in DMSO at a concentration of 1000 times the highest concentration to be assayed. This stock solution was diluted, as required, with DMSO to lower concentrations. On the same day the cells were seeded, but after they had attached and spread out (about 3 hours), each test compound in varying concentrations (2 μL of the diluted stock solutions) was added to four replicate wells (n=4) for each concentration. Control cultures received 2 μL of DMSO per well (n=4). On the following morning, the cultures were examined microscopically and their condition recorded. On the third day after test compound addition (˜68 hours), the cultures were examined microscopically again and the viable cells counted with an hemacytometer following trypsinization with 0.25% trypsin-1 mM EDTA. Trypan Blue dye exclusion was used to discriminate between viable and dead cells. The results were usually presented as % of the control viable cell count (mean±SEM) and were used to determine the IC50 for the inhibition of proliferation of vascular smooth muscle cells.

[2] = Homo sapiens, n=4, read-out: IC 50 for the inhibition of proliferation of vascular smooth muscle cells, Nitrosated and/or Nitrosylated Compound
[3] = n=4, read-out: IC 50 for the inhibition of proliferation of vascular smooth muscle cells, Non-nitrosated and/or Non-nitrosylated Compound

SMILES | melting point [°C] | IC50 [1, 2] [µM] | IC50 [1, 3] [µM]
CC(C)(CNC(=O)CO/N=C1\C[C@@H]2[C@H](CC[C@]3(C)[C@@H](O)CC[C@@H]23)c2ccc(O)cc21)SN=O [Example 41, 2-(((1S,11S,14S,15S,10R)-5,14-dihydroxy-15-methyltetracyclo(8.7.0.0<2,7>0.0<11,15>)heptadeca-2,4,6-trien-8-ylidene)azamethoxy)-N-(2-methyl-2-(nitrosothio)propyl)acetamide] | 145 to 150 | 10 | –
CC(C)(CNC(=O)COc1ccc2c(c1)CC[C@@H]1[C@@H]2CC[C@]2(C)[C@@H](O)CC[C@@H]12)SN=O [Example 42, 2-((1S,11S,14S,15S,10R)-14-Hydroxy-15-methyltetracyclo(8.7.0.0<2,7>0.0<11,15>)heptadeca-2,4,6-trien-5-yloxy)-N-(2-methyl-2-(nitrosothio)propyl)acetamide] | 40 | 9 | –
C[C@]12CC[C@@H]3c4ccc(OCC(=O)OCCC5(S)C6CC7CC(C6)CC5C7)cc4CC[C@H]3[C@@H]1CC[C@@H]2O (stereo partly drawn) [Example 45, 2-(2-Sulfanyladamantan-2-yl)ethyl 2-((1S,11S,14S,15S,10R)-14-hydroxy-15-methyltetracyclo(8.7.0.0<2,7>0.0<11,15>)heptadeca-2,4,6-trien-5-yloxy)acetate] | 78 to 80 | – | 8
C[C@]12CC[C@@H]3c4ccc(O)cc4/C(=N/OCC(=O)OCCC4(S)C5CC6CC(C5)CC4C6)C[C@H]3[C@@H]1CC[C@@H]2O (stereo partly drawn) [Example 46, 2-(2-sulfanyladamantan-2-yl)ethyl 2-(((1S,11S,14S,15S,10R)-5,14-dihydroxy-15-methyltetracyclo(8.7.0.0<2,7>0.0<11,15>)heptadeca-2,4,6-trien-8-ylidene)azamethoxy)acetate] | 85 to 90 | – | 5 to 12
CC(C)(S)CNC(=O)CO/N=C1\C[C@@H]2[C@H](CC[C@]3(C)[C@@H](O)CC[C@@H]23)c2ccc(O)cc21 [Example 47, 2-(((1S,11S,14S,15S,10R)-5,14-dihydroxy-15-methyltetracyclo(8.7.0.0<2,7>0.0<11,15>)heptadeca-2,4,6-trien-8-ylidene)azamethoxy)-N-(2-methyl-2-sulfanylpropyl)acetamide] | 87 to 90 | – | > 80
CC(C)(S)CNC(=O)COc1ccc2c(c1)CC[C@@H]1[C@@H]2CC[C@]2(C)[C@@H](O)CC[C@@H]12 [Example 48, 2-((1S,11S,14S,15S,10R)-14-hydroxy-15-methyltetracyclo(8.7.0.0<2,7>0.0<11,15>)heptadeca-2,4,6-trien-5-yloxy)-N-(2-methyl-2-sulfanylpropyl)acetamide] | 50 to 52 | – | 11
COc1ccc(C=C2c3ccccc3C(=NOCC(=O)NCC(C)(C)SN=O)c3ccccc32)cc1O [Example 51, 2-((10-((3-Hydroxy-4-methoxyphenyl)methylene)(9-anthrylidene))-azamethoxy)-N-(2-methyl-2-(nitrosothio)propyl)acetamide] | 143 to 145 | 10 | –
COc1ccc(C=C2c3ccccc3C(=NO)c3ccccc32)cc1O [Example 52, 5-((10-(Hydroxyimino)(9-anthrylidene))methyl)-2-methoxyphenol] | 140 | – | 0.6
C[C@]12CC[C@@H]3c4ccc(OC(=O)c5ccccc5)cc4CC[C@H]3[C@@H]1CC[C@@H]2OC(=O)CCC(=O)O[C@H]1CO[C@H]2[C@@H]1OC[C@H]2O [Example 57, (1S,11S,14S,15S,10R)-15-Methyl-5-phenylcarbonyloxytetracyclo(8.7.0.0<2,7>0.0<11,15>)heptadeca-2,4,6-trien-14-yl(1S,2S,5R,6R)-6-hydroxy-4,8-dioxabicyclo(3.3.0)oct-2-yl butane-1,4-dioate] | 136 to 137 | – | > 80
C[C@]12CC[C@@H]3c4ccc(OC(=O)CCC(=O)O[C@H]5CO[C@H]6[C@@H]5OC[C@H]6O)cc4CC[C@H]3[C@@H]1CC[C@@H]2O [Example 58, (1S,11S,14S,15S,10R)-14-Hydroxy-15-Methyltetracyclo(8.7.0.0<2,7>0.0<11,15>)heptadeca-2,4,6-trien-5-yl(1S,2S,5R,6R)-6-hydroxy-4,8-dioxabicyclo(3.3.0)oct-2-yl butane-1,4-dioate] | 79 to 80 | – | 12
